“And” between values parts separate entries of the source, which are not always exact repeats. Equal values may be shown once.
Tests used:
[1] = test system: human cervical tumor cell line HeLa (ATCC CCL-2); assay: SAC-Formation - Nocodazole-Induced Assay; assay type: cell-based; conditions: Homo sapiens, HeLa, 24 h, HeLa cells, nocodazole 0.1 μg/ml together with test compound, decrease of mitotic cells (phospho-histone H3 Ser10)
How it was run: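 Loss of phospho-histone H3 Ser10-positive cells, counted against Hoechst-stained nuclei by high-content imaging, marked mitotic breakthrough. Compounds (0.005–20 μM, 0.5% DMSO) were co-dosed with 0.1 μg/ml nocodazole onto HeLa cells for 24 h at 37 °C. Curves were fitted with a four-parameter Hill equation.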

[2] = biological target: T1, catalytic domain of human Bub1 (amino acids 704-1085) (Homo sapiens, UniProt O43683); assay: Bub1 kinase assay (TR-FRET); assay type: biochemical; conditions: 10 μM ATP, avg, read-out: Bub1 avg (IC50 [mol/l])
T1 construct: catalytic domain of human Bub1 (amino acids 704-1085); His6 (N); made in house; host or cells: insect cells (Hi5)
How it was run: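 Readout is the 665/620 nm TR-FRET ratio from anti-phosphoserine antibody, Eu-labelled anti-mouse IgG and streptavidin-XL665, scaled between no-enzyme and uninhibited controls. Reaction: 1 μM biotinylated peptide, 10 μM ATP, 60 min, 22 °C, after 15 min compound preincubation with His6-Bub1 (704-1085, insect-expressed, ~200 ng/ml).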

T1 sequence (O43683 704-1085): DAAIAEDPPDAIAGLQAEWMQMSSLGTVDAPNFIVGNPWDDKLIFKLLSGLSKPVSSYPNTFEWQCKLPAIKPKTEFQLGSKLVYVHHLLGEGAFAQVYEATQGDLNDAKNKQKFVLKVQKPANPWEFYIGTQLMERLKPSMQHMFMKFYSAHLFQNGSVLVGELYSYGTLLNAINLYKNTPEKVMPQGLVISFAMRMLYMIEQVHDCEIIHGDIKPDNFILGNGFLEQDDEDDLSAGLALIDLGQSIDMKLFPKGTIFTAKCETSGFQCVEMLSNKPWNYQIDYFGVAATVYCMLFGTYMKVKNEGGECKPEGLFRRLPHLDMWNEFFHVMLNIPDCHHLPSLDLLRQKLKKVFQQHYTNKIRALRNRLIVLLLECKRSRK

Row | IC50 [1] | IC50 [2] | Compound
1 | 2400 nM | ≥ 20000 nM | CCN1CCC(Oc2ccc(NC(=O)c3c(C)nsc3Nc3cc(C#N)ccn3)cn2)CC1 [Example 26, 5-[(4-Cyanopyridin-2-yl)amino]-N-{6-[(1-ethylpiperidin-4-yl)oxy]pyridin-3-yl}-3-methyl-1,2-thiazole-4-carboxamide]
2 | 230 nM | > 20000 nM | Cc1nsc(Nc2cncc(C(F)(F)F)n2)c1C(=O)Nc1ccc(C(=O)N2CCN(CC(F)(F)F)CC2)cc1 [Example 272, 3-methyl-N-(4-{[4-(2,2,2-trifluoroethyl)piperazin-1-yl]carbonyl}phenyl)-5-{[6-(trifluoromethyl)pyrazin-2-yl]amino}-1,2-thiazole-4-carboxamide]
3 | 440 nM | > 20000 nM | Cc1nsc(Nc2cnc(C(F)(F)F)cn2)c1C(=O)Nc1ccc(N(C)C)c(OCCCN(C)CCC(F)(F)F)c1 [Example 300, N-[4-(dimethylamino)-3-{3-[methyl(3,3,3-trifluoropropyl)amino]propoxy}phenyl]-3-methyl-5-{[5-(trifluoromethyl)pyrazin-2-yl]amino}-1,2-thiazole-4-carboxamide]
4 | 38 nM | 19000 nM | Cc1nsc(Nc2cncc(C(F)(F)F)n2)c1C(=O)Nc1ccc(F)c(OC2CCN(CC(F)F)CC2)c1 [Example 268, N-(3-{[1-(2,2-difluoroethyl)piperidin-4-yl]oxy}-4-fluorophenyl)-3-methyl-5-{[6-(trifluoromethyl)pyrazin-2-yl]amino}-1,2-thiazole-4-carboxamide]
5 | 130 nM | > 20000 nM | Cc1nsc(Nc2cncc(C(F)(F)F)n2)c1C(=O)Nc1ccc(OC2CCN(CCC(F)(F)F)CC2)nc1 [Example 304, 3-methyl-5-{[6-(trifluoromethyl)pyrazin-2-yl]amino}-N-(6-{[1-(3,3,3-trifluoropropyl)piperidin-4-yl]oxy}pyridin-3-yl)-1,2-thiazole-4-carboxamide]
6 | 670 nM | > 20000 nM | Cc1nsc(Nc2cncc(C(F)(F)F)n2)c1C(=O)Nc1ccc(C(=O)NC2CN(CC(F)(F)F)C2)cc1 [Example 280, 3-methyl-N-(4-{[1-(2,2,2-trifluoroethyl)azetidin-3-yl]carbamoyl}phenyl)-5-{[6-(trifluoromethyl)pyrazin-2-yl]amino}-1,2-thiazole-4-carboxamide]
7 | 190 nM | > 20000 nM | Cc1nsc(Nc2cncc(C(F)(F)F)n2)c1C(=O)Nc1ccc(OCCCO)nc1 [Example 278, N-[6-(3-hydroxypropoxy)pyridin-3-yl]-3-methyl-5-{[6-(trifluoromethyl)pyrazin-2-yl]amino}-1,2-thiazole-4-carboxamide]
8 | 88 nM | > 20000 nM | Cc1nsc(Nc2cnc(C(F)(F)F)cn2)c1C(=O)Nc1ccc(F)c(OCC2CCN(CCF)C2)c1 (centres unmarked) [Example 317, N-(4-fluoro-3-{[1-(2-fluoroethyl)pyrrolidin-3-yl]methoxy}phenyl)-3-methyl-5-{[5-(trifluoromethyl)pyrazin-2-yl]amino}-1,2-thiazole-4-carboxamide]
9 | 80 nM | > 20000 nM | Cc1nsc(Nc2cnc(C(F)(F)F)cn2)c1C(=O)Nc1ccc(OC2CCN(CCC(F)(F)F)C2)nc1 (centres unmarked) [Example 298, 3-methyl-5-{[5-(trifluoromethyl)pyrazin-2-yl]amino}-N-(6-{[1-(3,3,3-trifluoropropyl)pyrrolidin-3-yl]oxy}pyridin-3-yl)-1,2-thiazole-4-carboxamide]
10 | 650 nM | > 20000 nM and 18000 nM | Cc1nsc(Nc2cnc(C(F)(F)F)cn2)c1C(=O)Nc1ccc(OCCO)nc1 [Example 277, N-[6-(2-hydroxyethoxy)pyridin-3-yl]-3-methyl-5-{[5-(trifluoromethyl)pyrazin-2-yl]amino}-1,2-thiazole-4-carboxamide]
11 | 1100 nM | > 20000 nM | Cc1nsc(Nc2cnc(C(F)(F)F)cn2)c1C(=O)Nc1ccc(C(=O)NC2CN(CC(F)F)C2)cc1 [Example 271, N-(4-{[1-(2,2-difluoroethyl)azetidin-3-yl]carbamoyl}phenyl)-3-methyl-5-{[5-(trifluoromethyl)pyrazin-2-yl]amino}-1,2-thiazole-4-carboxamide]
12 | 140 nM | 14000 nM | Cc1nsc(Nc2cnc(C(F)(F)F)cn2)c1C(=O)Nc1ccc(OCCNCCF)nc1 [Example 321, N-(6-{2-[(2-fluoroethyl)amino]ethoxy}pyridin-3-yl)-3-methyl-5-{[5-(trifluoromethyl)pyrazin-2-yl]amino}-1,2-thiazole-4-carboxamide]
13 | 510 nM | 19000 nM | Cc1nsc(Nc2cnc(C(F)(F)F)cn2)c1C(=O)Nc1ccc(OCCNCC(F)F)nc1 [Example 305, N-(6-{2-[(2,2-difluoroethyl)amino]ethoxy}pyridin-3-yl)-3-methyl-5-{[5-(trifluoromethyl)pyrazin-2-yl]amino}-1,2-thiazole-4-carboxamide]
14 | 600 nM | > 20000 nM | Cc1nsc(Nc2cnc3ccccc3n2)c1C(=O)Nc1cccc(NS(=O)(=O)C2CCN(C(=O)OC(C)(C)C)CC2)c1 [Example 258, tert-butyl 4-{[3-({[3-methyl-5-(quinoxalin-2-ylamino)-1,2-thiazol-4-yl]carbonyl}amino)phenyl]sulfamoyl} piperidine-1-carboxylate]
15 | 35 nM | > 20000 nM | Cc1nsc(Nc2cnc(C(F)(F)F)cn2)c1C(=O)Nc1ccc(F)c(OC2CCN(CC(F)(F)F)CC2)c1 [Example 264, N-(4-fluoro-3-{[1-(2,2,2-trifluoroethyl)piperidin-4-yl]oxy}phenyl)-3-methyl-5-{[5-(trifluoromethyl)pyrazin-2-yl]amino}-1,2-thiazole-4-carboxamide]
16 | 980 nM | > 20000 nM | Cc1nsc(Nc2cnc(C(F)(F)F)cn2)c1C(=O)Nc1ccc(OCCCNCC(F)(F)F)nc1 [Example 292, 3-methyl-N-(6-{3-[(2,2,2-trifluoroethyl)amino]propoxy}pyridin-3-yl)-5-{[5-(trifluoromethyl)pyrazin-2-yl]amino}-1,2-thiazole-4-carboxamide]
17 | 550 nM | > 20000 nM | COC(=O)CCc1cccc(NC(=O)c2c(C)nsc2Nc2cnc3ccccc3n2)c1 [Example 257, methyl 3-[3-({[3-methyl-5-(quinoxalin-2-ylamino)-1,2-thiazol-4-yl]carbonyl}amino)phenyl]propanoate]
18 | 24 nM | ≥ 20000 nM | Cc1nsc(Nc2cnc(C(F)(F)F)cn2)c1C(=O)Nc1ccc(F)c(OCCCNCC(F)(F)F)c1 [Example 306, N-(4-fluoro-3-{3-[(2,2,2-trifluoroethyl)amino]propoxy}phenyl)-3-methyl-5-{[5-(trifluoromethyl)pyrazin-2-yl]amino}-1,2-thiazole-4-carboxamide]
19 | 150 nM | ≥ 20000 nM | Cc1nsc(Nc2ccc(C#N)cn2)c1C(=O)Nc1ccc(OC2CCN(C(=O)OC(C)(C)C)CC2)nc1 [Example 27, tert-Butyl 4-({5-[({5-[(5-cyanopyridin-2-yl)amino]-3-methyl-1,2-thiazol-4-yl}-carbonyl)amino]pyridin-2-yl}oxy)piperidine-1-carboxylate]
20 | 730 nM | > 20000 nM | Cc1nsc(Nc2cnc3ccccc3n2)c1C(=O)Nc1ccc(N2CCN(C(=O)OC(C)(C)C)CC2)nc1 [Example 248, tert-butyl 4-[5-({[3-methyl-5-(quinoxalin-2-ylamino)-1,2-thiazol-4-yl]carbonyl}amino)pyridin-2-yl]piperazine-1-carboxylate]
21 | 1100 nM | > 20000 nM | Cc1nsc(Nc2cncc(C(F)(F)F)n2)c1C(=O)Nc1ccc(C(=O)N2CCN(CC(F)F)CC2)cc1 [Example 273, N-(4-{[4-(2,2-difluoroethyl)piperazin-1-yl]carbonyl}phenyl)-3-methyl-5-{[6-(trifluoromethyl)pyrazin-2-yl]amino}-1,2-thiazole-4-carboxamide]
22 | 950 nM | > 20000 nM | Cc1nsc(Nc2cnc(C(F)(F)F)cn2)c1C(=O)Nc1ccc(C(=O)NC2CN(CC(F)(F)F)C2)cc1 [Example 270, 3-methyl-N-(4-{[1-(2,2,2-trifluoroethyl)azetidin-3-yl]carbamoyl}phenyl)-5-{[5-(trifluoromethyl)pyrazin-2-yl]amino}-1,2-thiazole-4-carboxamide]
23 | 130 nM | ≥ 20000 nM | Cc1nsc(Nc2cnc(C(F)(F)F)cn2)c1C(=O)Nc1ccc(F)c(OCC2CCN(CCF)CC2)c1 [Example 309, N-(4-fluoro-3-{[1-(2-fluoroethyl)piperidin-4-yl]methoxy}phenyl)-3-methyl-5-{[5-(trifluoromethyl)pyrazin-2-yl]amino}-1,2-thiazole-4-carboxamide]
24 | 2200 nM | > 20000 nM | Cc1nsc(Nc2cnc3ccccc3n2)c1C(=O)Nc1cccc(NS(=O)(=O)C2CN(CC(F)(F)F)C2)c1 [Example 285, 3-methyl-5-(quinoxalin-2-ylamino)-N-[3-({[1-(2,2,2-trifluoroethyl)azetidin-3-yl]sulfonyl}amino)phenyl]-1,2-thiazole-4-carboxamide]
25 | 28 nM | ≥ 20000 nM | Cc1nsc(Nc2cnc(C(F)(F)F)cn2)c1C(=O)Nc1ccc(F)c(OCC2CCN(CC(F)F)C2)c1 (centres unmarked) [Example 316, N-(3-{[1-(2,2-difluoroethyl)pyrrolidin-3-yl]methoxy}-4-fluorophenyl)-3-methyl-5-{[5-(trifluoromethyl)pyrazin-2-yl]amino}-1,2-thiazole-4-carboxamide]
